Source: ChEMBL document CHEMBL5223130, “Targeting SARS-CoV-2 Main Protease for Treatment of COVID-19: Covalent Inhibitors Structure-Activity Relationship Insights and Evolution Perspectives” (J Med Chem, 2022)
Square brackets hold non-standard residues; d marks the D form. Peptide text beside a SMILES is read from it. Nle = CCCC[C@H](N)C(=O)O

Tests used:
SARS-CoV-2 [1] = format: functional, organism-based, Vero E6; settings: Severe acute respiratory syndrome coronavirus 2, USA-WA1/2020, Vero C1008, 72 h
[2] = Selectivity index, ratio of EC50 for antiviral activity against SARS-CoV-2 to […]; format: toxicity
[3] = molecular target: T1, Replicase polyprotein 1ab (Severe acute respiratory syndrome coronavirus 2, UniProt P0DTD1); test: Binding affinity to C-terminal His-tagged SARS-CoV-2 BetaCoV/Wuhan/WIV04/2019 Main protease expressed in Escherichia coli assessed as inhibition constant
[4] = molecular target: T1, Replicase polyprotein 1ab; test: Binding affinity to SARS-CoV-2 Main protease assessed as inhibition constant
SARS-CoV-2 [5] = test: Antiviral activity against SARS-CoV-2 USA-WA1/2020 infected in African green monkey Vero 76 cells assessed as reduction in virus induced cytopathic effect measured after 3 days by secondary viral yield reduction assay; format: functional, organism-based; settings: Severe acute respiratory syndrome coronavirus 2, USA-WA1/2020, Vero 76, 72 h
SARS-CoV-2 [6] = format: functional, organism-based, Vero E6; settings: Severe acute respiratory syndrome coronavirus 2, 2019-nCoV/USA_WA1/2020, Vero C1008, 72 h
[7] = molecular target: T1, Replicase polyprotein 1ab; test: Inhibition of SARS-CoV-2 Main protease
[8] = molecular target: T1, Replicase polyprotein 1ab; test: Inhibition of recombinant SARS-CoV-2 Main protease expressed in Escherichia coli BL21 (DE3) cells using Mca-AVLQSGFR-K(Dnp)K as substrate preincubated for 15 mins followed by substrate addition by FRET assay
SARS-CoV-2 [9] = format: functional, organism-based, Vero E6; settings: Severe acute respiratory syndrome coronavirus 2, nCoV-2019BetaCoV/Wuhan/WIV04/2019, Vero C1008
[10] = molecular target: T1, Replicase polyprotein 1ab; test: Inhibition of SARS-CoV-2 Main protease by FRET assay
SARS-CoV-2 [11] = format: functional, organism-based; settings: Severe acute respiratory syndrome coronavirus 2, A549, 96 h
SARS-CoV-2 [12] = format: functional, organism-based; settings: Severe acute respiratory syndrome coronavirus 2, Caco-2, 72 h
Procathepsin L = Procathepsin L (Homo sapiens, UniProt P07711); test: Inhibition of human Cathepsin L using Z-Phe-Arg-AMC as fluorogenic substrate incubated for 30 mins followed by substrate addition by fluorescence based analysis
Chain of Procathepsin L (P07711 whole entry): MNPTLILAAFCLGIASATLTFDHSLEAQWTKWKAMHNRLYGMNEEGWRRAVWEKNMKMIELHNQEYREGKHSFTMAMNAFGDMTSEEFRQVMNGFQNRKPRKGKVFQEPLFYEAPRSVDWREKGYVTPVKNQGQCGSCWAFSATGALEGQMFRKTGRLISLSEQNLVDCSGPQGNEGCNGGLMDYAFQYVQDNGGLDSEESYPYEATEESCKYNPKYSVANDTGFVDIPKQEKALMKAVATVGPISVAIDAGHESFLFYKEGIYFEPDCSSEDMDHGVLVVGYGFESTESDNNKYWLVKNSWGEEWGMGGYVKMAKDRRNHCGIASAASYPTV

SARS-CoV-2 [13] = format: functional, organism-based; settings: Severe acute respiratory syndrome coronavirus 2, Caco-2
[14] = molecular target: T1, Replicase polyprotein 1ab; test: Inhibition of SARS-CoV-2 Main protease using Dabcyl-KTSAVLQSGFRKME-Edans as substrate preincubated for 30 mins followed by substrate addition and measured after 4 hrs by fluorescence based assay
SARS-CoV-2 [15] = format: functional, organism-based, Vero E6; settings: Severe acute respiratory syndrome coronavirus 2, WK-521, Vero C1008, 72 h
SARS-CoV-2 [16] = test: Antiviral activity against SARS-CoV-2 2019-nCoV/USA_WA1/2020 infected in human Huh-7 cells expressing ACE2 measured 24 hrs post infection; format: functional, organism-based; settings: Severe acute respiratory syndrome coronavirus 2, 2019-nCoV/USA_WA1/2020, Huh-7, 24 h
[17] = molecular target: T1, Replicase polyprotein 1ab; test: Inhibition of C-terminal His-tagged SARS-CoV-2 BetaCoV/Wuhan/WIV04/2019 Main protease expressed in Escherichia coli using Dabcyl-KTSAVLQ/SGFRKME(Edans) as substrate by FRET assay
SARS-CoV-2 [18] = test: microbe, parasite or virus in culture; settings: Severe acute respiratory syndrome coronavirus 2

## CC(C)C[C@H](NC(=O)OCc1ccccc1)C(=O)N[C@@H](C[C@@H]1CCNC1=O)C(=O)C(=O)NC1CC1
SARS-CoV-2 [1]
  EC50: 4610 nM
[2]
  Ratio: 102.44
[3]
  Ki: 36 nM

## C=CCn1ccc2c(C(=O)Oc3cncc(Cl)c3)cccc21
[2]
  Ratio: 205.47

## O=C(Oc1cncc(Cl)c1)c1cccc2c1CCN2
[4]
  Ki: 2150 nM
[2]
  Ratio: 46.87

## CCC[C@H](NC(=O)[C@H](CC(C)C)NC(=O)OCc1ccccc1)C(=O)C(=O)NCc1ccccn1
SARS-CoV-2 [5]
  EC50: 780 nM

## CCOC(=O)/C=C/[C@H](C[C@@H]1CCNC1=O)NC(=O)[C@H](CC(C)C)NC(=O)[C@@H](NC(=O)OCc1ccccc1)[C@@H](C)OC(C)(C)C
SARS-CoV-2 [6]
  EC50: 2880 nM

## O=C(CCl)N1N=C(c2cc(Cl)ccc2F)C(c2ccccc2)C1c1ccc2nccnc2c1 (centres undefined)
[7]
  IC50: 14 nM

## C=CC(=O)N(c1ccc(C(C)(C)C)cc1)[C@H](C(=O)NCCc1cccc(F)c1)c1cccnc1
[4]
  Ki: 38400 nM

## O=c1c2ccccc2[se]n1Cc1ccc(Cl)cc1
[8]
  IC50: 824 nM
SARS-CoV-2 [9]
  EC50: 1780 nM

## CC(C)CCn1sc2ccc(Br)cc2c1=O
[10]
  IC50: 320 nM

## CC(C)C[C@H](NC(=O)[C@@H](NC(=O)OCc1ccccc1)[C@H](C)OC(C)(C)C)C(=O)N[C@H](C=O)C[C@@H]1CCNC1=O
SARS-CoV-2 [11]
  EC50: 310 nM
SARS-CoV-2 [12]
  EC50: 2500 nM
Procathepsin L
  IC50: 1.2 nM

## O=C[C@H](C[C@@H]1CCNC1=O)NC(=O)[C@@H]1[C@H]2CCC[C@H]2CN1C(=O)OCc1ccccc1
[2]
  Ratio: 50.2

## COc1cncc(Cn2[se]c3ccccc3c2=O)c1
[8]
  IC50: 467 nM
SARS-CoV-2 [9]
  EC50: 3170 nM

## COc1cccc(Cn2[se]c3ccccc3c2=O)c1
[8]
  IC50: 363 nM
SARS-CoV-2 [9]
  EC50: 4500 nM

## C[C@H](NC[C@@H](c1cccnc1)N(C(=O)C(Br)(Br)Br)c1ccc(-c2ccccc2)cc1)c1ccccc1
[7]
  IC50: 80 nM
[2]
  Ratio: 26.87
SARS-CoV-2 [13]
  EC50: 2150 nM

## C[C@H](NC[C@@H](c1cccnc1)N(C(=O)C(Cl)Cl)c1ccc(-c2ccccc2)cc1)c1ccccc1
[7]
  IC50: 430 nM
[2]
  Ratio: 4.76
SARS-CoV-2 [13]
  EC50: 2050 nM

## COc1ccc(-c2sc3n(c(NC(C)(C)C)c4[n+]3[C@H]3CC(=O)C=C[C@H]3OC4)c2-c2ccc(OC)cc2)cc1
[14]
  IC50: 20700 nM

## CC(C)C[C@H](NC(=O)OCc1ccccc1)C(=O)N[C@@H](CC(C)C)C(=O)N[C@@H](C[C@@H]1CCNC1=O)C(=O)C(=O)NC1CC1
SARS-CoV-2 [1]
  EC50: 11100 nM
[3]
  Ki: 13 nM

## O=C(N[C@@H](Cc1ccccc1)C(=O)N[C@@H](C[C@@H]1CCNC1=O)C(O)S(=O)(=O)[O-])OCc1ccccc1.[Na+] (some centres undefined)
[2]
  Ratio: 45.78

## Cc1cccc(C(=O)Oc2c(C)cccc2C(=O)Oc2cncc(Cl)c2)c1O
SARS-CoV-2 [15]
  EC50: 24000 nM

## O=C(c1cccc(Cn2[se]c3ccccc3c2=O)c1)N1CCOCC1
[8]
  IC50: 345 nM
SARS-CoV-2 [9]
  EC50: 3740 nM

## CC(C)C[C@H](NC(=O)OCc1cccc(C(F)(F)F)c1)C(=O)N[C@@H](C[C@@H]1CCNC1=O)C(O)S(=O)(=O)O (some centres undefined)
SARS-CoV-2 [16]
  EC50: 6 nM

## CSCC[C@@H](C=O)NC(=O)[C@H](CC(C)C)NC(=O)[C@H](CC(C)C)NC(C)=O (Ac-Leu-Leu-Met-aldehyde)
SARS-CoV-2 [5]
  EC50: 3700 nM

## CCCC[C@@H](C=O)NC(=O)[C@H](CC(C)C)NC(=O)[C@H](CC(C)C)NC(C)=O (Ac-Leu-Leu-[Nle]-aldehyde)
[17]
  IC50: 970 nM

## CC(C)(C)NC(=O)N[C@H](C(=O)N1C[C@H]2[C@@H]([C@H]1C(=O)NC(CC1CCC1)C(=O)C(N)=O)C2(C)C)C(C)(C)C (some centres undefined) [BOCEPREVIR]
SARS-CoV-2 [18]
  EC50: 1900 nM

## O=C1C=CC(=O)c2c(O)ccc(O)c21 [NAPHTHAZALIN]
[7]
  IC50: 490 nM
